From US5332820A, “Dibenzobicyclo(2.2.2) octane angiotensin II antagonists” (priority 1991, dated 1994)

Tests used:
[1] = molecular target: AII receptor (rat adrenal cortical microsomes); test: Angiotensin II receptor binding (ligand-receptor binding assay; displacement of 3H-AII or 125I-AII); conditions: 2 nM 3H-AII or 0.05 nM 125I-AII, 1 hour, room temperature
Experimental: The hormone angiotensin II (AII) produces numerous biological responses, e.g., vasoconstriction, through stimulation of its receptors on cell membranes. For the purpose of identifying compounds such as AII antagonists which are capable of interacting with the AII receptor, a ligand-receptor binding assay was utilized for the initial screen. The assay was carried out according to the method described by Glossmann, et al., J. Biol. Chem., 249, 825 (1974), but with some modifications. The reaction mixture contained rat adrenal cortical microsomes (source of AII receptor) in Tris buffer and 2 nM of ^3 H-AII or 0.05 nM ^125 I-AII with or without potential AII antagonist. This mixture was incubated for 1 hour at room temperature and the reaction was subsequently terminated by rapid filtration and rinsing through glass micro-fibre filter. Receptor-bound ^3 H-AII or ^125 I-AII trapped in filter was quantitated by scintillation counting. The inhibitory concentration (IC50) of potential AII antagonist which gives 50% displacement of the total specifically bound ^3 H-AII or ^125 I-AII is a measure of the affinity of such compound for the AII receptor.

Renal Hypertensive Rats = test: Antihypertensive effects in renal hypertensive rats, intravenous activity; format: in vivo, rat; conditions: awake renal artery-ligated rats; i.v.; 10 mg/kg (footnote)
Experimental: This procedure increases blood pressure by increasing renin production with consequent elevation of AII levels. […] Arterial blood pressure is continuously measured directly through a carotid artery cannula and recorded using a pressure transducer and a polygraph. Blood pressure levels after treatment are compared to pretreatment levels to determine the antihypertensive effects of the compounds which were tested.

[2] = system: renal vasoconstrictor effect of indomethacin and meclofenamate; conditions: dogs; cited from earlier work
[3] = system: effects of AII on the blood pressure of pithed rats; conditions: cited from earlier work
[4] = system: arterial pressure in mammals and man; conditions: cited from earlier work
[5] = system: renal vasoconstrictor effect of indomethacin; conditions: dogs with non-hypotensive hemorrhage; cited from earlier work

SMILES	IC50 [1] [nM]	Antihypertensive Effects in Renal Hypertensive Rats, Intravenous Activity (Renal Hypertensive Rats)	further results
CCCCc1nc(Cl)c(C=O)n1Cc1ccc2c(c1)C1c3ccccc3C2C(C(=O)O)C1C(=O)O (mixture of isomers) [Example 1, (±)-cis-2-[(2-n-butyl-4-chloro-5-formylimidazol-1-yl)methyl]-9,10-dihydro-9,10-ethanoanthracene-11,12-dicarboxylic acid, a mixture of endo and oxo isomers]	1100	+ (Significant decrease in blood pressure at 10 mg/kg or less)	
CCCCc1nc(Cl)c(C=O)n1Cc1ccc2c(c1)C1c3ccccc3C2C(C(=O)O)C1C(=O)O (mixture of isomers) [Example 2A, (±)-trans-2-[(2-n-butyl-4-chloro-5-formylimidazol-1-yl)methyl]-9,10-dihydro-9,10-ethanoanthracene-11,12-dicarboxylic acids, both diastereomers]	220	+ (Significant decrease in blood pressure at 10 mg/kg or less)	
CCCCc1nc(Cl)c(C=O)n1Cc1ccc2c(c1)C1c3ccccc3C2C(C(=O)O)C1C(=O)O (mixture of isomers) [Example 2B, (±)-trans-2-[(2-n-butyl-4-chloro-5-formylimidazol-1-yl)methyl]-9,10-dihydro-9,10-ethanoanthracene-11,12-dicarboxylic acids, both diastereomers]	320	+ (Significant decrease in blood pressure at 10 mg/kg or less)	
CCCCc1nc(Cl)c(C=O)n1Cc1ccc2c(c1)C1c3ccccc3C2C(c2nnn[nH]2)C1c1nnn[nH]1 (mixture of isomers) [Example 3, (±)-trans-2-[(2-n-butyl-4-chloro-5-formylimidazol-1-yl)methyl]-9,10-dihydro-9,10-ethano-11,12-bis (1H-tetrazol-5-yl)anthracene, both diastereomers]	92	+ (Significant decrease in blood pressure at 10 mg/kg or less)	
CCCCc1nc(Sc2ccccc2)c(C=O)n1Cc1ccc2c(c1)C1c3ccccc3C2C(c2nnn[nH]2)C1c1nnn[nH]1 (mixture of isomers) [Example 4, (±)-trans-2-[(2-n-butyl-4-phenylthio-5-formylimidazol-l-yl)methyl]-9,10-dihydro-9,10-ethano-11,12-bis (1H-tetrazol-5-yl) anthracene: one diastereomer]	460	+ (Significant decrease in blood pressure at 10 mg/kg or less)	
CNCC(=O)N[C@@H](CCCN=C(N)N)C(=O)N[C@H](C(=O)N[C@@H](Cc1ccc(O)cc1)C(=O)N[C@H](C(=O)N[C@@H](Cc1cnc[nH]1)C(=O)N1CCC[C@H]1C(=O)N[C@@H](C)C(=O)O)C(C)C)C(C)C [Saralasin]			inhibition of renal vasoconstrictor effect of indomethacin and meclofenamate [2]: inhibit the renal vasoconstrictor effect of indomethacin and meclofenamate in dogs; block of the effects of AII on blood pressure of pithed rats [3]: blocks the effects of AII on the blood pressure of pithed rats; effect on arterial pressure when the (elevated) pressure is dependent on circulating AII ([4]; mammals and man, AII-dependent pressure): lower arterial pressure in mammals and man; oral effectiveness ([4]; oral doses): oral doses being ineffective; duration of action ([4]; parenteral administration): relatively short-lasting; effect when the pressure is not sustained by AII (agonistic character) ([4]; pressure not sustained by AII): generally elicits pressor effects
C[C@H](CS)C(=O)N1CCC[C@H]1C(=O)O [captopril]			reversal of renal vasoconstrictor effect of indomethacin [5]: reverse the renal vasoconstrictor effect of indomethacin in dogs
